From paper PMC7022715 (Pharmaceutics, 2019)

How the values were obtained:
[1] = design: method as in ref 25 (Lai et al.); conditions: photo-stability; ref 25 (Lai et al.); cited from earlier work
[2] = design: method as in ref 11 (Al Omari et al. 2007); conditions: UV exposure for 15 min; ref 11 (Al Omari et al. 2007); cited from earlier work
[3] = oral, rats and mice, 12 months; cited from earlier work
[4] = In vivo pharmacokinetics after topical application to dorsal skin; conditions: male, Sprague-Dawley, rat, plasma, both hydrogel groups, rats, topical 25 mg/kg
Procedure: In vivo pharmacokinetic study of MTK-loaded nanocrystal preparation was carried out in the healthy rats, after approval from Institutional Animal Care and Use Committee (IACUC) of Dankook University (Cheonan, Korea) (DKU-19-032, 8th October 2019). Six-week-old male Sprague-Dawley rats (SD rats, 250 ± 20 g) obtained from Samtako (Kyungki-do, Korea) were acclimated for at least 3 days, with free access to tap water and standardized chow. The rats were then divided into two groups (n = 6 per each group) and the hair on the dorsal region was removed by hair clippers without damaging the skin, prior to topical application. […] During the experimental period (24 h), individual rats were monitored for their changes in skin and fur, behavior pattern, morbidity, and mortality. […] The drug concentration in the plasma was determined by the high-performance liquid chromatography and tandem mass spectrometry (LC–MS/MS) method described below.
Briefly, 20 μL of thawed rat plasma was mixed with 500 μL of the extraction solution (25% (v/v) of dichloromethane and 75% (v/v) of ethyl acetate), including zafirlukast (the internal standard, IS, 60 ng/mL) and vortexed for 60 s. […] Then, the residue was reconstituted with 100 μL of methanol and the final solution was analyzed through the LC-MS/MS system, composed of Nexera X2 UHPLC and LCMS-8050 mass spectrometer (Shimadzu, Tokyo, Japan). […]

[5] = format: in vivo; conditions: rats, 25 mg/kg topical, 24 h monitoring
Procedure: In vivo pharmacokinetic study of MTK-loaded nanocrystal preparation was carried out in the healthy rats, after approval from Institutional Animal Care and Use Committee (IACUC) of Dankook University (Cheonan, Korea) (DKU-19-032, 8th October 2019). Six-week-old male Sprague-Dawley rats (SD rats, 250 ± 20 g) obtained from Samtako (Kyungki-do, Korea) were acclimated for at least 3 days, with free access to tap water and standardized chow. The rats were then divided into two groups (n = 6 per each group) and the hair on the dorsal region was removed by hair clippers without damaging the skin, prior to topical application. […] To avoid the drying of the nanocrystal or conventional hydrogels, a thin film made from polyurethane and acrylamide (Tegaderm®, 10 × 12 cm) was attached onto the application site. At predetermined time intervals (0, 0.5, 1, 2, 3, 4, 5, 8, 12, and 24 h), the blood samples (about 0.2 mL) were withdrawn from the submandibular vein using 28 G heparinized syringe. At 6 h post-administration, rats were allowed to freely access to water and standardized chow. During the experimental period (24 h), individual rats were monitored for their changes in skin and fur, behavior pattern, morbidity, and mortality. […] The drug concentration in the plasma was determined by the high-performance liquid chromatography and tandem mass spectrometry (LC–MS/MS) method described below.

SMILES | half-life with nanosuspension as compared to drug methanolic solution [1] [fold] | drug content in the methanolic solution [2] [%] | NOAEL [3] [mg/kg] | concentration at 5 h ([4]; 5 h post-dosing) [ng/mL] | concentration at 12 h ([4]; 12 h post-dosing, read-out: drug concentration in the plasma) [ng/mL] | adverse effects following single topical administration [5]
CC1=C(/C=C/C(C)=C/C=C/C(C)=C/C(=O)O)C(C)(C)CCC1 [tretinoin] | 7.5 | – | – | – | – | –
CC(C)(O)c1ccccc1CC[C@@H](SCC1(CC(=O)O)CC1)c1cccc(/C=C/c2ccc3ccc(Cl)cc3n2)c1 [MTK, Montelukast] | – | 70 | 50 | 2 to 6 | < 1 | no marked adverse effects
